Consider one sequence from patent publication US20130115256A1, “METHODS FOR TREATING OR PREVENTING VASCULAR GRAFT FAILURE” (priority 2010, published 2013).

The subject of data set [1] is human saphenous vein (HSV). Kind of data set: Sodium nitroprusside-induced relaxation of human saphenous vein in muscle bath. The note with it: for relaxation (percent relaxation): 100 μM pretreatment, phenylephrine 10^-6 M. As to the method:
In preparation for testing vein segment functional viability, HSV rings were weighed and their lengths recorded. To focus on smooth muscle responses, the endothelium was mechanically denuded by rolling the luminal surface of each ring at the tip of a fine vascular forceps before suspension in a muscle bath containing a bicarbonate buffer (120 mM NaCl, 4.7 mM KCl, 1.0 mM MgSO4, 1.0 mM NaH2PO4, 10 mM glucose, 1.5 mM CaCl2, and 25 mM […], pH 7.4) equilibrated with 95% O2 and 5% CO2 at 37° C. The rings were stretched and the length progressively adjusted until maximal tension was obtained. Normalized reactivity was obtained by determining the passive length-tension relationship for each vessel segment. Rings were maintained at a resting tension of 1 g, which produces maximal responses to contractile agonists as previously determined, and equilibrated for 2 hours in buffer. Force measurements were obtained using a Radnoti Glass Technology (Monrovia, Calif.) force transducer (159901A) interfaced with a Powerlab data acquisition system and Chart software (AD Instruments, Colorado Springs, Colo.).
HSV rings were first contracted with 110 mM KCl (with equimolar replacement of NaCl in bicarbonate buffer) and the generated force was measured. 110 mM KCl causes membrane depolarization, leading to contraction of vessels containing functionally viable smooth muscle. After multiple KCl challenges, rings were washed and allowed to equilibrate in bicarbonate solution for 30 min, and then contracted with phenylephrine (PE, 10^−7-10^−6 M). Rings were relaxed with a cumulative log dose of sodium nitroprusside (SNP), a nitric oxide donor, and the force generated was recorded. All rings were again washed and equilibrated in buffer for 15 minutes. Rings were then incubated with either buffer alone or buffer plus 100 μM of MMI-0100 ([…] (SEQ ID NO: 1)) for 2 hours, followed by treatment with the same doses of PE and SNP, and the forces generated again recorded. Measured force was normalized for ring weight and length and percent relaxation was calculated; force generated with 10^−6M of PE was set as 0% relaxation.
The enhancing effect of MMI-0100 ([…]; SEQ ID NO: 1) on smooth muscle relaxation was examined by pre-treating harvested human saphenous vein (HSV) with MMI-0100 ([…]; SEQ ID NO: 1) before SNP treatment. Segments of human saphenous vein (HSV) were equilibrated in a muscle bath and pretreated with a control solution (0.01M phosphate-buffered solution, PBS) or MMI-0100 ([…] (SEQ ID NO: 1); 30 μM, 2 hrs), contracted with norepinephrine. and relaxed with increasing doses of sodium nitroprusside (SNP, 0-1 μM). Percentage of relaxation at 0, 0.01, 0.1, and 1.0 μM of SNP was measured. […]

Data set [2] has as its system human smooth muscle cell (SMC; HASMC). Kind of data set: MTS cell proliferation assay, human smooth muscle cells. The format is cell-based. On the procedure: The CellTiter 96® AQueous Non-Radioactive Cell Proliferation Assay (Promega) was used to assess drug effects on cell proliferation according to the manufacturer's instructions. Briefly, HAECs and HASMCs from early passages were grown to 80-90% confluence in 25 cm^2 tissue culture flasks in a 37° C./5% CO2 incubator prior to harvest. 200 μl of each type of cell suspension (at 20,000 cells/cm^2) was seeded onto separate 96-well plates to yield an approximate 60% confluence per well. Cells were allowed to adhere to the plate surface overnight, followed by addition of 20 ng/ml of TNF-α to stimulate production of inflammatory agents. After a 4-6 hour incubation period, MMI-0100 peptide drug ([…]; SEQ ID NO: 1) was added and cells incubated for another 20-24 hours. Each well was then supplemented with 100 μl of fresh medium and 200 μl of CellTiter 96® AQueous One Solution Reagent and incubated for an additional 1.5-2 hours prior to measuring absorbance of each well at 490 nm with a SoftMax®-equipped plate reader.
In order to determine the effect of pharmacological doses of MMI-0100 ([…]; SEQ ID NO: 1) on human endothelial cell (EC) and smooth muscle cell (SMC) proliferation, human EC and SMC cultures were treated with three concentrations (0.25 mM, 0.5 mM, and 1 mM) of MMI-0100 ([…] (SEQ ID NO: 1)) following pre-treatment with TNF-α.
For orientation: Formazan colour is commonly taken as a measure of viable cells.

In the case of YARAAARQARAKALARQLGVAA [MMI-0100], the “increase in relaxation compared to HSV pretreated with control solution” value in data set [1] (30 μM, 2 hrs pretreatment, norepinephrine contraction, SNP 0-1 μM, n=3) was “about 40%”. Moreover, the entries for the “relaxation (percent relaxation)” value in data set [1] (10^-7 M SNP (untreated control 72.768±6.99)) and in data set [1] (10^-8 M SNP (untreated control 10.825±5.62)) were 92.54±3.09 and 25.622±6.38, respectively. For the same sequence, the “SMC proliferation compared to control (20 ng/ml TNF-α alone)” value in data set [2] (0.25 mM MMI-0100) is recorded as “slightly increased”. In addition, the “increase in SMC proliferation compared to control (20 ng/ml TNF-α alone)” value in data set [2] (0.5 mM MMI-0100) amounted to 12%; in data set [2] (1 mM MMI-0100), 7%. Also, the “SMC morphology, phase contrast images” value in data set [2] (24 hours treatment) is on record as “no obvious morphological changes”.
